In patent publication US20160228444A1, “NUCLEOSIDE ANALOGS AND USES THEREOF” (Ramot at Tel-Aviv University Ltd., priority 2015, published 2016):
Where two headings read alike, the source gives them in different places.

Key:
[1] = tested on: HDACs of classes I and II; assay: HDAC activity in intact cells (Fluor de Lys kit); assay type: cell-based, human; details: both U251 and Daudi cells, 2 h, FIG. 1B
Protocol: U251 or Daudi cells seeded in 96-well plates (10^4 cells/well, in quadruplicates) in growth medium for 24 h were then treated as indicated for 2 h in the presence of the HDAC substrate (Fluor de Lys™). The reaction was terminated by the addition of the Fluor de Lys™ developer (Biomol Research Labs) and […] trichostatin A (TSA). All of the above reagents were included in a kit for measuring activities of HDACs of classes I and II (AK-503, Biomol Research Labs). The percentage inhibition was calculated from the ratio of the fluorescence (measured at 355 nm excitation and at 460 nm emission) in the drug treated compared with the untreated control culture.

VEGF = VEGF immunohistochemistry in tumor and heart of xenograft mice; assay type: in vivo; details: FIG. 4F
Protocol: The pro-angiogenic factors basic fibroblast growth factor (bFGF) and vascular endothelial growth factor (VEGF) are potent angiogenic stimulators. The expression of bFGF in the tumor and in the heart was evaluated by Western blot and qRT-PCR analyses and expression of VEGF by IHC.

c-Myc = c-Myc and p-c-Myc (Thr 58) Western blot in tumor and heart of xenograft mice; assay type: in vivo
Protocol: Protein levels in the samples were determined with the BCA protein assay kit (Pierce). The samples were subjected to Western blot analyses. The expression of proteins was visualized using their specified primary antibodies followed by the secondary IgG IRDye® 680DX antibody. Each detected band was quantified using the Odyssey Infrared Imaging System (LI-COR Biosciences) and normalized to the level of actin. The fold increase of a specific protein was determined by the ratio of the band intensity obtained from treated and untreated samples.
The c-Myc protein is an important regulator of normal cell physiology and in tumor cells it plays an important role in activating oncogenic pathways [Soucek & Evan, Curr Opin Genet Dev 2010, 20:91-95].

MCP-1 = MCP-1 gene expression in MDA-MB-231 cells (qRT-PCR); assay type: cell-based, human; details: combination with paclitaxel, FIG. 7C
Protocol: The effect of AN446 on inflammation-associated pathways was evaluated in the monocytic THP1 cell line and in the MDA-MB-231 breast carcinoma cell line. Supernatants of treated THP1 cells were collected and IL-6, IL-10 and TNF-α concentrations were quantified by ELISA (R&D systems). TLR4 expression in THP1 cells was assessed using fluorescent anti-TLR4 antibodies and FACS analysis. In addition, gene expression for MCP-1, TNF-α and TLR4 in MDA-MB-231 was evaluated by qRT-PCT, following treatment with AN446 and/or paclitaxel.

Hut-78 CTLC cell line = assay: MTT cell viability assay, 48 hours; assay type: cell-based, human
Protocol: (§1) The MyLa CTLC cell line (originating from an indolent mycosis fungoides patient) and the Hut-78 CTLC cell line (originating from an aggressive Sézary patient) were used to evaluate toxicity towards cancer cells, and peripheral blood lymphocytes (PBLs) from healthy volunteers were used to evaluate toxicity towards noncancerous cells.
(§2) Cell viability was determined by an MTT cell viability assay after 48 hours. MyLa cells (10^4 cells/well), Hut78 cells (5×10^3 cells/well) and normal PBLs (10^5 cells/well) were seeded in 96 well-plates. The PBLs were activated with 40 μg/10^6 cells of phytohemagglutinine (PHA) for 24 h before the experiment.

MyLa CTLC cell line = assay: MTT cell viability assay, 48 hours; assay type: cell-based, human
Protocol: as §1, §2

[2] = tested on: peripheral blood lymphocytes (PBLs) from healthy volunteers; assay: MTT cell viability assay, 48 hours; assay type: cell-based; details: Homo sapiens, Lymphocyte, read-out: IC50 PBL
Protocol: as §1, §2

MDA-231 cells = assay: Median-effect drug interaction, Hoechst viability, 72 h; assay type: cell-based, human; details: for IC50: Homo sapiens
Protocol: (§3) The ratios of the drug combination were based on the ratio of their IC50 of each drug alone. Cell viability was determined by MTT assay, as described hereinabove. The drugs were added to the cells and incubated for 72 h.
(§4) Drug interaction in adherent cells was evaluated as above except that the viability was determined by Hoechst assay.

[3] = tested on: NCI-N87 gastric carcinoma cells; assay: as above; assay type: cell-based, human; details: for IC50: Homo sapiens
Protocol: as §3, §4

T47D cells = assay: as above; assay type: cell-based, human; details: for IC50: Homo sapiens
Protocol: as §3, §4

[4] = tested on: acetylated H3 histone in H9C2 cardiomyoblasts; assay: Histone H3 acetylation (Western blot), 24 hours; assay type: cell-based, rat; details: FIG. 12
Protocol: The effects of the abovementioned HDAC inhibitors on histone acetylation were also compared. U251 and H9C2 cells were treated with the HDAC inhibitors for 24 hours (according to procedures described hereinabove with respect to FIGS. 9 and 10), and then subjected to Western blot analysis.

Rad51 in H9C2 cells = assay: Rad51 (Western blot), 24 or 48 hours; assay type: cell-based, rat; details: FIG. 14B
Protocol: The effects of the abovementioned HDAC inhibitors on DNA damage and repair were then assessed by evaluating changes in levels of phosphorylated histone H2AX (pH2AX), a marker of DNA double-strand breaks, and Rad51, a marker of homologous recombination-guided DNA repair of double-strand breaks [Nagathihalli & Nagaraju, Biochim Biophys Acta 2011, 1816:209-218; Rogakou et al., J Biol Chem 1998, 273:5858-5868].
U251 and H9C2 cells were treated with the HDAC inhibitors for 24 or 48 hours, and then subjected to Western blot analysis.

U251 cells = assay: Hoechst viability assay 72 h / median-effect combination study; details: Homo sapiens, U-251, 72 h, read-out: IC50 value for viability in U251 cells after 72 hours
Protocol: Hoechst assay: 22RV-1, MCF-7, MCF-7DX, 4T1, U251, and T47D cells (3×10^3 cells/well) and NCI-N87 (8×10^3 cells/well) were seeded in tissue culture in growth medium for 24 h in 96-well plates (in triplicate) and then exposed to different concentrations (titration) of the tested drug for 72 h at 37° C. The plates were then rinsed with PBS and fixed with 100 ml of 70% ethanol for 30 min. […] The fluorescence was measured (excitation at 390 nm and emission at 460 nm) with a Synergy III Fluorometer-Elisa reader (BioTek Instruments, Inc. Germany).
The Median Effect Analysis (MEA) for a constant combination ratio was used for drugs interaction and the combination index (CI) determination.
The average values of three independent experiments were calculated and analyzed with CalcuSyn software.

[5] = tested on: 10 different cancer cell lines; assay: Viability assay (Hoechst for adherent cells, MTT for suspension cells), 72 h
Protocol: Hoechst assay: 22RV-1, MCF-7, MCF-7DX, 4T1, U251, and T47D cells (3×10^3 cells/well) and NCI-N87 (8×10^3 cells/well) were seeded in tissue culture in growth medium for 24 h in 96-well plates (in triplicate) and then exposed to different concentrations (titration) of the tested drug for 72 h at 37° C. The plates were then rinsed with PBS and fixed with 100 ml of 70% ethanol for 30 min. […] The fluorescence was measured (excitation at 390 nm and emission at 460 nm) with a Synergy III Fluorometer-Elisa reader (BioTek Instruments, Inc. Germany). The viability of cells grown in suspension was measured by the MTT assay. HL-60, Daudi and Jurkat cells were seeded (5×10^3 cells/well) in 96-well plates in growth medium and immediately exposed to different concentrations (titration) of the tested drugs (in triplicate). After 72 h incubation, the MTT reagent in PBS (10 ml of 5 mg/ml) was added to the cell suspension and incubated for an additional 3 h. Then, 100 ml of 0.04 M HCl in isopropanol was added and the absorbance at 570 nm measured using a Synergy III Fluorometer-spectrophotometer ELISA reader.

In the case of CCCC(CCC)C(=O)Nc1nc2c(ncn2COCCOC(=O)C(CCC)CCC)c(=O)[nH]1 [AN446, N-valproyl-9-(2-valproyloxy)ethoxymethyl-guanine], the “potency as HDAC inhibitor relative to AN7” value [1] is reported as 2-3 fold, the “VEGF expression in the heart” value (VEGF) is reported as “elevated” and the “c-Myc protein expression in the hearts” value (c-Myc; heart, FIG. 5B) is reported as “significantly increased its expression to a level higher than in naive or vehicle-treated mice”. For the same compound, the “c-Myc protein expression in tumors” value (c-Myc; tumor, FIG. 5A) was “decreased dramatically”, the “paclitaxel-induced increase in expression of MCP-1” value (MCP-1) was “significantly attenuated” and the IC50 (Hut-78 CTLC cell line; Homo sapiens, HuT78, 48 h, read-out: IC50 HUT78) was 21 ± 1.3 µM. The “toxicity to Hut-78 cells relative to normal PBLs” value (Hut-78 CTLC cell line; from Table 1 IC50 values) was “about 10 fold”, the IC50 (MyLa CTLC cell line; Homo sapiens, 48 h, read-out: IC50 MyLa) was 40 ± 2.3 µM and the “toxicity to MyLa cells relative to normal PBLs” value (MyLa CTLC cell line; from Table 1 IC50 values) was “about 5 fold”. For the same compound, the IC50 [2] was 200 ± 3 µM, the IC50 (MDA-231 cells; MDA-MB-231, MDA-231, in combination with Dox, read-out: com IC50) was 17 µM and the IC50 (MDA-231 cells; MDA-MB-231, MDA-231, in combination with paclitaxel, read-out: com IC50) was 14 ± 0.3 µM. For the same compound, the IC50 (MDA-231 cells; MDA-MB-231, MDA-231, single agent, Table 2, read-out: IC50) was 38 µM, the IC50 (MDA-231 cells; MDA-MB-231, MDA-231, single agent, Table 3, read-out: IC50) was 37.8 ± 1.1 µM and the “CI (combination index with paclitaxel)” value (MDA-231 cells; MDA-231) was 0.8. It also gave an IC50 ([3]; NCI-N87, NCI-N87, single agent, Table 2) of 20 ± 3 µM, an IC50 ([3]; NCI-N87, NCI-N87, single agent, Table 3) of 20 ± 3 µM and an IC50 ([3]; NCI-N87, read-out: com IC50, NCI-N87, in combination with Dox) of 6 µM. The IC50 ([3]; NCI-N87, read-out: com IC50, NCI-N87, in combination with paclitaxel) was 9.1 ± 0.4 µM, the “CI (combination index with paclitaxel)” value ([3]; NCI-N87) was 0.76 and the “CI (combination index with paclitaxel)” value (T47D cells) was 1.4. The IC50 (T47D cells; read-out: com IC50, T47D, in combination with Dox) was 5.2 µM, the IC50 (T47D cells; read-out: com IC50, T47D, in combination with paclitaxel) was 13.6 ± 0.6 µM and the IC50 (T47D cells; single agent, Table 2) was 21.7 µM. The IC50 (T47D cells; single agent, Table 3) was 23.6 ± 0.6 µM, the “histone acetylation in H9C2 cardiomyocytes” value [4] was “not in non-cancerous cardiomyocytes” and the “expression of Rad51 in cardiomyocytes (H9C2)” value (Rad51 in H9C2 cells) was “moderately increased expression”. For the same compound, the IC50 (U251 cells) was 20 µM, the IC50 ([5]; 72 h, read-out: IC50 (cell viability)) was 20 to 46 µM and the “potency in reducing the viability of cancer cells relative to AN7” value ([5]; from IC50 values, FIG. 1A) was 2-5 fold.
